Reference: patent US20190359645A1, “2'3'-CYCLIC DINUCLEOTIDES COMPRISING CARBOCYCLIC NUCLEOTIDE” (Institute of Organic Chemistry and Biochemistry ASCR, V.V.I., priority 2018, published 2019)
Read-outs that look alike come from different tables or passages of the source.

Target: WT STING (Homo sapiens, UniProt Q86WV6, H232R)
Assay: Digitonin assay using 293T wtSTING-FL reporter cells
Format: cell-based
Parameters: host or cells: 293T (ATCC CRL-3216), stably transfected; also carries the 4xISRE firefly luciferase reporter
Conditions: 293T wtSTING-FL cells, digitonin buffer 30 min, then 5 h, ISRE firefly luciferase reporter
Excerpt: Two complementary oligonucleotides of the sequence […] […] […] […] (SEQ ID NO: 1) and […] […] (SEQ ID NO:2) containing four interferon-sensitive response elements (ISRE) were synthesized by Sigma Aldrich (Czech Republic, Prague). The oligonucleotides were mixed in equal molar amounts, hybridized, and cleaved by restriction endonucleases HindIII (cat. #. R^0104S, NEB, Ipswich, USA) and BglII (cat. # R^0144S, NEB, Ipswich, USA). Ultimately, they were ligated into plasmid pGL4.27 (cat. # E6651, Promega, Madison, USA) linearized with the same enzymes. As a result, the sequence with four ISRE sites was placed upstream of the minimum promoter of firefly luciferase reporter gene.
293T cells (cat. # CRL-3216, ATCC, Manassas, USA) were seeded a day before transfection at density 125,000 cells per cm^2 onto poly-D-lysine (cat. # P6407, Sigma Aldrich, Czech Republic) coated six well plates in antibiotic free DMEM with high glucose (cat. # D5796, Sigma Aldrich, Czech Republic) supplemented with 10% heat inactivated FBS (cat. # S1520, Biowest, Riverside, USA). On the day of transfection, 2.5 μg of the plasmid pUNO1-hSTING-WT (cat. # punol-hstingwt, InvivoGen, San Diego, USA,) encoding human wild type STING (WT STING) was diluted in 125 μL OptiMEM medium (cat. #31985062, ThermoFisher, Waltham, USA) and mixed with 125 μL of the same medium containing 12.5 μL of Lipofectamine 2000 (cat. #11668019, ThermoFisher, Waltham, USA). After 5 minutes incubation at room temperature (RT), 250 μL of the mixture was added dropwise to the cells in one well. Cells were incubated 36 hours at 37° C. with 5% CO2, and then detached with 0.05% Trypsin and 0.22 g/L EDTA (both cat. # L0941, Biowest, Riverside, USA).
Transfected cells were seeded onto poly-D-lysine coated six well plates at density 50,000 cells per 1 cm^2 in DMEM medium with high glucose containing 10% heat inactivated FBS, […] blasticidin (cat. # ant-bl-05, InvivoGen, San Diego, USA), 0.06 mg/ml Penicillin G and 0.1 mg/ml Streptomycin Sulfate (both cat. #. L0018, Biowest, Riverside, USA). The medium was replenished every 3-4 days until visible colonies of cells resistant to blasticidin were formed.
Blasticidin resistant cells stably expressing WT STING were further transfected with […] plasmid following the same procedure as described above. The transfected cells were selected for the resistance to 300 μg/mL hygromycin (cat. #. 10687010, ThermoFisher, Waltham, USA) in DMEM with high glucose containing 10% heat inactivated FBS, […] blasticidin, 0.06 mg/ml Penicillin G and 0.1 mg/ml Streptomycin Sulfate. Homogeneous culture of stably double transfected cells was prepared by limiting dilution of cells in 96 well plates and wells with cells were selected that originated from a single cell. These cells were expanded, and expression of WT STING was confirmed by western blot using monoclonal mouse anti STING antibodies (cat. #. MAB7169, 1:1000 dilution; […] cat. #. HAF007, 1:2000 dilution, both from R&D Systems, Minneapolis, USA), and by induction of firefly luciferase expression in the presence of 50 μM STING agonist 2′3′ cGAMP (cat. # tlrl-nacga23, InvivoGen, San Diego, USA). Genomic DNA from the transfected cells was amplified with primers pUNO1_Seq_F ([…]) (SEQ ID NO:3) and pUNO1_Seq_R ([…]) (SEQ ID NO:4) that were complementary to pUNO1 plasmid and the presence of WT STING gene in the transfected cells was confirmed by DNA sequencing.
293T wtSTING-FL cells were seeded at density of 250,000 cells per cm^2 onto 96 well poly-D-lysine coated plates in 100 μl DMEM with high glucose supplemented with 10% heat inactivated FBS. […]

[1] = read-out: Digitonin assay EC50 WT STING

WT STING, sequence (Q86WV6 whole entry H232R): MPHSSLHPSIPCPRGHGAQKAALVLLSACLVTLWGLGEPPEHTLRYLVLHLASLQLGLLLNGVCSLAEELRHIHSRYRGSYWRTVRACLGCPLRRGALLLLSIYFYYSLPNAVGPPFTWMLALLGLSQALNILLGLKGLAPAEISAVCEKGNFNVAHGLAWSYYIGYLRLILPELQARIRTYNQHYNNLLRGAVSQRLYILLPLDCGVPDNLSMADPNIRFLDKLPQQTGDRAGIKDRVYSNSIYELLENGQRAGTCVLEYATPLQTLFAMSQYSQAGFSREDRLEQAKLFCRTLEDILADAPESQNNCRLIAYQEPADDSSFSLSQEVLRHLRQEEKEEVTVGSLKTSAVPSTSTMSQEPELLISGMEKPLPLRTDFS

| Structure (SMILES) | EC50 [1] [nM] | EC50 (Digitonin assay EC50 WT STING) [nM] |
| --- | --- | --- |
| Nc1ncnc2c1ncn2[C@@H]1O[C@@H]2COP(=O)(S)O[C@@H]3[C@H](F)[C@@H](COP(=O)(S)O[C@H]2[C@H]1F)C[C@H]3n1cnc2c(=O)[nH]cnc21 (single isomer, unassigned) [Compound 128c] | 60 | – |
| Nc1nc2c(ncn2[C@@H]2C[C@@H]3COP(=O)(O)OC4C(O)[C@H](n5cnc6c(N)ncnc65)O[C@@H]4COP(O)(=S)OC2C3O)c(=O)[nH]1 (stereo partly drawn) [Compound 101, 2-amino-9-[(6R,8R,15R,17R)-8-(6-amino-9H-purin-9-yl)-3,9,12,18-tetrahydroxy-12-oxo-3-sulfanylidene-2,4,7,11,13-pentaoxa-3λ^5,12λ^5-diphosphatricyclo[13.2.1.0^6,10]octadecan-17-yl]-6,9-dihydro-1H-purin-6-one] | – | 10 |
| Nc1nc2c(ncn2[C@@H]2C[C@@H]3COP(=O)(O)OC4C(O)[C@H](n5cnc6c(N)ncnc65)O[C@@H]4COP(=O)(O)OC2C3O)c(=O)[nH]1 (stereo partly drawn) [Compound 102, (6R,8R,15R,17R)-17-(2-amino-6-oxo-6,9-dihydro-1H-purin-9-yl)-8-(6-amino-9H-purin-9-yl)-3,9,12,18-tetrahydroxy-2,4,7,11,13-pentaoxa-3λ^5,12λ^5-diphosphatricyclo[13.2.1.0^6,10]octadecane-3,12-dione] | 100 | – |
| Nc1nc2c(ncn2[C@@H]2C[C@@H]3COP(=O)(O)OC4C(O)[C@H](n5cnc6c(=O)[nH]cnc65)O[C@@H]4COP(=O)(O)OC2C3O)c(=O)[nH]1 (stereo partly drawn) [Compound 104, (6R,8R,15R,17R)-17-(2-amino-6-oxo-6,9-dihydro-1H-purin-9-yl)-3,9,12,18-tetrahydroxy-8-(6-oxo-6,9-dihydro-1H-purin-9-yl)-2,4,7,11,13-pentaoxa-3λ^5,12λ^5-diphosphatricyclo[13.2.1.0^6,10]octadecane-3,12-dione] | 100 | – |
| CNc1ncnc2c1ncn2[C@@H]1O[C@@H]2COP(=O)(O)OC3C(O)[C@@H](COP(=O)(O)OC2C1O)C[C@H]3n1cnc2c(=O)[nH]c(N)nc21 (stereo partly drawn) [Compound 108, (6R,8R,15R,17R)-17-(2-amino-6-oxo-6,9-dihydro-1H-purin-9-yl)-3,9,12,18-tetrahydroxy-8-[6-(methylamino)-9H-purin-9-yl]-2,4,7,11,13-pentaoxa-3λ^5,12λ^5-diphosphatricyclo[13.2.1.0^6,10]octadecane-3,12-dione] | 170 | – |
| Nc1nc2c(ncn2[C@@H]2C[C@@H]3COP(=O)(O)OC4C(N)[C@H](n5cnc6c(N)ncnc65)O[C@@H]4COP(=O)(O)OC2C3O)c(=O)[nH]1 (stereo partly drawn) [Compound 109, (6R,8R,15R,17R)-9-amino-17-(2-amino-6-oxo-6,9-dihydro-1H-purin-9-yl)-8-(6-amino-9H-purin-9-yl)-3,12,18-trihydroxy-2,4,7,11,13-pentaoxa-3λ^5,12λ^5-diphosphatricyclo[13.2.1.0^6,10]octadecane-3,12-dione] | 130 | – |
| Nc1nc2c(ncn2[C@@H]2C[C@@H]3COP(=O)(O)OC4C(F)[C@H](n5cnc6c(N)nc(F)nc65)O[C@@H]4COP(=O)(O)OC2C3O)c(=O)[nH]1 (stereo partly drawn) [Compound 111, (6R,8R,15R,17R)-8-(6-amino-2-fluoro-9H-purin-9-yl)-17-(2-amino-6-oxo-6,9-dihydro-1H-purin-9-yl)-9-fluoro-3,12,18-trihydroxy-2,4,7,11,13-pentaoxa-3λ^5,12λ^5-diphosphatricyclo[13.2.1.0^6,10]octadecane-3,12-dione] | 30 | – |

The remaining molecules from weak to strong by EC50 [1], led by results:

| EC50 [1] [nM] | Structure (SMILES) | EC50 (Digitonin assay EC50 WT STING) [nM] |
| --- | --- | --- |
| 15100 | CSc1nc(N)nc2c1ncn2[C@@H]1O[C@@H]2COP(=O)(O)OC3C(O)[C@@H](COP(=O)(O)OC2C1O)C[C@H]3n1cnc2c(=O)[nH]c(N)nc21 (stereo partly drawn) [Compound 112, (6R,8R,15R,17R)-8-[2-amino-6-(methylsulfanyl)-9H-purin-9-yl]-17-(2-amino-6-oxo-6,9-dihydro-1H-purin-9-yl)-3,9,12,18-tetrahydroxy-2,4,7,11,13-pentaoxa-3λ^5,12λ^5-diphosphatricyclo[13.2.1.0^6,10]octadecane-3,12-dione] | – |
| 6400 | Nc1nc2c(ncn2[C@@H]2C[C@@H]3COP(=O)(O)OC4C(O)[C@H](n5cnc6c(S)ncnc65)O[C@@H]4COP(=O)(O)OC2C3O)c(=O)[nH]1 (stereo partly drawn) [Compound 107, (6R,8R,15R,17R)-17-(2-amino-6-oxo-6,9-dihydro-1H-purin-9-yl)-3,9,12,18-tetrahydroxy-8-(6-sulfanyl-9H-purin-9-yl)-2,4,7,11,13-pentaoxa-3λ^5,12λ^5-diphosphatricyclo[13.2.1.0^6,10]octadecane-3,12-dione] | – |
| 1500 | Nc1nc2c(ncn2[C@@H]2C[C@@H]3COP(=O)(O)OC4C(O)[C@H](n5cnc6c(N)nc(F)nc65)O[C@@H]4COP(=O)(O)OC2C3O)c(=O)[nH]1 (stereo partly drawn) [Compound 103, (6R,8R,15R,17R)-8-(6-amino-2-fluoro-9H-purin-9-yl)-17-(2-amino-6-oxo-6,9-dihydro-1H-purin-9-yl)-3,9,12,18-tetrahydroxy-2,4,7,11,13-pentaoxa-3λ^5,12λ^5-diphosphatricyclo[13.2.1.0^6,10]octadecane-3,12-dione] | – |
| 500 | Nc1nc(N)c2ncn([C@@H]3O[C@@H]4COP(=O)(O)OC5C(O)[C@@H](COP(=O)(O)OC4C3O)C[C@H]5n3cnc4c(=O)[nH]c(N)nc43)c2n1 (stereo partly drawn) [Compound 105, (6R,8R,15R,17R)-17-(2-amino-6-oxo-6,9-dihydro-1H-purin-9-yl)-8-(2,6-diamino-9H-purin-9-yl)-3,9,12,18-tetrahydroxy-2,4,7,11,13-pentaoxa-3λ^5,12λ^5-diphosphatricyclo[13.2.1.0^6,10]octadecane-3,12-dione] | – |
| 400 | Nc1ncnc2c1ncn2[C@@H]1O[C@@H]2COP(=O)(S)O[C@@H]3[C@H](F)[C@@H](COP(=O)(S)O[C@H]2[C@H]1F)C[C@H]3n1cnc2c(=O)[nH]cnc21 (single isomer, unassigned) [Compound 128b] | – |
| 230 | CSc1ncnc2c1ncn2[C@@H]1O[C@@H]2COP(=O)(O)OC3C(O)[C@@H](COP(=O)(O)OC2C1O)C[C@H]3n1cnc2c(=O)[nH]c(N)nc21 (stereo partly drawn) [Compound 110, (6R,8R,15R,17R)-17-(2-amino-6-oxo-6,9-dihydro-1H-purin-9-yl)-3,9,12,18-tetrahydroxy-8-[6-(methylsulfanyl)-9H-purin-9-yl]-2,4,7,11,13-pentaoxa-3λ^5,12λ^5-diphosphatricyclo[13.2.1.0^6,10]octadecane-3,12-dione] | – |
| 200 | Nc1ncc2ncn([C@@H]3O[C@@H]4COP(=O)(O)OC5C(O)[C@@H](COP(=O)(O)OC4C3O)C[C@H]5n3cnc4c(=O)[nH]c(N)nc43)c2n1 (stereo partly drawn) [Compound 106, (6R,8R,15R,17R)-17-(2-amino-6-oxo-6,9-dihydro-1H-purin-9-yl)-8-(2-amino-9H-purin-9-yl)-3,9,12,18-tetrahydroxy-2,4,7,11,13-pentaoxa-3λ^5,12λ^5-diphosphatricyclo[13.2.1.0^6,10]octadecane-3,12-dione] | – |
| 120 | Cc1cn([C@@H]2O[C@@H]3COP(=O)(O)OC4C(O)[C@@H](COP(=O)(O)OC3C2O)C[C@H]4n2cnc3c(=O)[nH]c(N)nc32)c2ncnc(N)c12 (stereo partly drawn) [Compound 113, (6R,8R,15R,17R)-8-{4-amino-5-methyl-7H-pyrrolo[2,3-d]pyrimidin-7-yl}-17-(2-amino-6-oxo-6,9-dihydro-1H-purin-9-yl)-3,9,12,18-tetrahydroxy-2,4,7,11,13-pentaoxa-3λ^5,12λ^5-diphosphatricyclo[13.2.1.0^6,10]octadecane-3,12-dione] | – |
